# Values quoted from earlier work in PubChem BioAssay AID1259409 (Chemical Carcinogenesis Research Information System (CCRIS), 2018).
# Tested on: rodent chemically induced tumor inhibition, incidence and multiplicity
# Test: CCRIS tumor inhibitor studies
# Conditions: Dose [Inhibitor]: 0, Species: RAT, Strain/Sex: F344/MALE; for tumour outcome (control, treated, inhibition, significance): Carcinogen: AZOXYMETHANE (25843-45-2), Route [Inhibitor]: ORAL, Dose [Carcinogen]: 15 MG/KG BW 1 INJECTION/WK FOR 3 WK, Promoter: NONE USED
structure (smiles),measurement,setting,value
C=C(C)[C@H]1Cc2c(ccc3c2O[C@@H]2COc4cc(OC)c(OC)cc4[C@@H]2C3=O)O1,"tumour outcome (control, treated, inhibition, significance)","500 PPM IN DIET FOR 4 WK, BEGINNING 1 WK BEFORE THE FIRST CARCINOGEN DOSE (STUDY DURATION: 38 WK), Target Tissue: Type of Lesion: LARGE INTESTINE: ADENOCARCINOMA","9/15 (60%), 6/19 (32%), 47%, not significant"
same,"tumour outcome (control, treated, inhibition, significance)","500 PPM IN DIET FOR 4 WK, BEGINNING 1 WK BEFORE THE FIRST CARCINOGEN DOSE (STUDY DURATION: 38 WK), Target Tissue: Type of Lesion: LARGE INTESTINE: ADENOMA","4/15 (27%), 2/19 (11%), 59%, not significant"
same,"tumour outcome (control, treated, inhibition, significance)","500 PPM IN DIET FOR 4 WK, BEGINNING 1 WK BEFORE THE FIRST CARCINOGEN DOSE (STUDY DURATION: 38 WK), Target Tissue: Type of Lesion: SMALL INTESTINE: ADENOCARCINOMA","4/15 (27%), 1/19 (5%), 81%, not significant"
same,"tumour outcome (control, treated, inhibition, significance)","500 PPM IN DIET FOR 4 WK, BEGINNING 1 WK BEFORE THE FIRST CARCINOGEN DOSE (STUDY DURATION: 38 WK), Target Tissue: Type of Lesion: SMALL INTESTINE: ADENOMA","1/15 (7%), 0/19 (0%), 100%, not significant"
same,"tumour outcome (control, treated, inhibition, significance)","500 PPM IN DIET FOR 34 WK, BEGINNING 1 WK AFTER THE LAST CARCINOGEN DOSE (STUDY DURATION: 38 WK), Target Tissue: Type of Lesion: LARGE INTESTINE: ADENOCARCINOMA","9/15 (60%), 3/16 (19%), 68%, p= 0.0226"
same,"tumour outcome (control, treated, inhibition, significance)","500 PPM IN DIET FOR 34 WK, BEGINNING 1 WK AFTER THE LAST CARCINOGEN DOSE (STUDY DURATION: 38 WK), Target Tissue: Type of Lesion: LARGE INTESTINE: ADENOMA","4/15 (27%), 1/16 (6%), 78%, not significant"
same,"tumour outcome (control, treated, inhibition, significance)","500 PPM IN DIET FOR 34 WK, BEGINNING 1 WK AFTER THE LAST CARCINOGEN DOSE (STUDY DURATION: 38 WK), Target Tissue: Type of Lesion: SMALL INTESTINE: ADENOCARCINOMA","4/15 (27%), 1/16 (6%), 78%, not significant"
same,"tumour outcome (control, treated, inhibition, significance)","500 PPM IN DIET FOR 34 WK, BEGINNING 1 WK AFTER THE LAST CARCINOGEN DOSE (STUDY DURATION: 38 WK), Target Tissue: Type of Lesion: SMALL INTESTINE: ADENOMA","1/15 (7%), 0/16 (0%), 100%, not significant"
same,outcome,"Carcinogen: DIETHYLNITROSAMINE, 0.005, 0.5, 500 PPM FOR 11 OR 43 WK BEGINNING 1 WK AFTER CARCINOGEN (STUDY DURATION: 45 WK), 0.005, 0.5, 500 PPM FOR 11 OR 43 WK BEGINNING 1 WK AFTER CARCINOGEN (STUDY DURATION: 45 WK), Route [Inhibitor]: DIET, Target Tissue: Type of Lesion: LIVER: HEPATOCELLULAR CARCINOMA, HEPATOCELLULAR ADENOMA, Dose [Carcinogen]: 100 MG/KG BW TWICE AT 1 WK INTERVALS (STUDY DURATION: 45 WK)",60; 35; 65; 100: 55; 65; 50; 100
